Some test systems named below: 786-0 renal; A498 renal; ACHN renal; BT-549 breast; HOP-62 NSCLC; HS 578T breast; HT29 colon; MDA-N; RXF 393 renal; SF-295 CNS; SF-539 CNS.
Holding throughout (test): NCI anticancer screen, dose series, 48 h

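Exposure lasted 48 hours, with cells grown in 96-well plates and compounds tested at five concentrations. At the TGI there is no net growth.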

In the case of `CC(C)C(OC(=O)c1ccc(NCc2cc(O)ccc2O)cc1)C(C)C`, the TGI with 786-0 renal was 2.42 µM; with A498 renal it was 9.58 µM; with ACHN renal it was 2.33 µM; in the test on BT-549 breast, 2.23 µM; in the test on HOP-62 NSCLC it was 21.7 µM; with HS 578T breast, 8.09 µM. The TGI with HT29 colon worked out at 16.6 µM; in the test with MDA-N it was 12.9 µM; in the test with RXF 393 renal it was 1.65 µM; with SF-295 CNS it was 15.4 µM; in the test on SF-539 CNS it was 2.47 µM.

For the molecule `CCOP(=O)(OCC)C1CC(n2cc(C)c(=O)[nH]c2=O)OC1CO` (centres undefined), the TGI in the test on 786-0 renal, in the test on A498 renal, in the test with ACHN renal, with BT-549 breast, in the test on HOP-62 NSCLC and in the test with HS 578T breast was more than 100 µM throughout. Moreover, the TGI in the test on HT29 colon, in the test with MDA-N, in the test with RXF 393 renal, in the test with SF-295 CNS and in the test on SF-539 CNS was more than 100 µM each time.

For the molecule `O=C(Cn1c(C(=O)/C=C/c2cccs2)nc2ccccc21)c1ccc(Cl)cc1`, the TGI is 32.8 µM in the test with 786-0 renal; 57.9 µM with A498 renal; more than 100 µM with ACHN renal; 63.6 µM in the test with BT-549 breast; more than 100 µM in the test on HOP-62 NSCLC; 38.7 µM with HS 578T breast. Also, the TGI with HT29 colon was 56.9 µM; in the test with MDA-N, 56.7 µM; in the test on RXF 393 renal, more than 100 µM; in the test on SF-539 CNS it was more than 100 µM.

As to `CN1CCN(CCCBr)CC1`, the TGI in the test with 786-0 renal, with A498 renal, in the test with ACHN renal, with BT-549 breast, in the test with HOP-62 NSCLC and in the test with HS 578T breast was more than 100 µM throughout. The TGI in the test on HT29 colon, in the test with MDA-N, in the test with RXF 393 renal, with SF-295 CNS and in the test with SF-539 CNS was more than 100 µM each time.

With `CC1(C)[C@H]2CC[C@]1(C)[C@H](OC(=O)NNC(=O)O[C@@H]1C[C@@H]3CC[C@@]1(C)C3(C)C)C2`, the TGI in the test with 786-0 renal was 50.3 µM; in the test on A498 renal, 33.8 µM; with ACHN renal, 36.7 µM; in the test with BT-549 breast, 42.9 µM; in the test on HOP-62 NSCLC it was 29.5 µM; in the test on HS 578T breast, 36.6 µM. Further, the TGI in the test with HT29 colon came out at 20.9 µM; in the test on MDA-N, 24.8 µM; in the test with RXF 393 renal it was 24.7 µM; in the test on SF-295 CNS, 28.8 µM; with SF-539 CNS, 29.9 µM.

With `CSC1=N/C(=C\c2ccco2)C(=O)N1CN1CCOCC1`, the TGI with 786-0 renal is more than 100 µM; in the test with A498 renal, more than 100 µM; with ACHN renal, more than 89.4 µM; in the test on BT-549 breast it was 41.2 µM; in the test on HOP-62 NSCLC, more than 100 µM; with HS 578T breast, more than 100 µM. For the same molecule, the TGI was more than 100 µM with HT29 colon; more than 100 µM in the test on MDA-N; 44.6 µM in the test with RXF 393 renal; more than 100 µM in the test on SF-295 CNS; 35.3 µM with SF-539 CNS.

For the molecule `C=C(C)C(O)C(O)c1c(OC)ccc2ccc(=O)oc12` (centres undefined), the TGI with 786-0 renal, in the test on A498 renal, with ACHN renal, with BT-549 breast, in the test on HOP-62 NSCLC and with HS 578T breast was more than 100 µM throughout. In addition, the TGI in the test on HT29 colon, with MDA-N, in the test with RXF 393 renal, in the test on SF-295 CNS and with SF-539 CNS was more than 100 µM in each case.

Take `CCOC(=O)c1cc2c(C(=O)c3ccc([N+](=O)[O-])cc3)c(C(C)=O)ccc2[nH]1`: the TGI was more than 100 µM in the test with 786-0 renal; more than 100 µM with A498 renal; more than 100 µM in the test on ACHN renal; more than 100 µM with BT-549 breast; 18.4 µM with HOP-62 NSCLC; 50.1 µM in the test on HS 578T breast. The TGI in the test on HT29 colon is more than 100 µM; in the test with MDA-N, more than 100 µM; in the test with RXF 393 renal, 80.5 µM; in the test with SF-295 CNS, more than 100 µM; with SF-539 CNS it was more than 100 µM.

Regarding `O=C(c1cc(Cl)ccc1Cl)N1CCN(C(=O)c2cc(Cl)ccc2Cl)CC1`, the TGI in the test with 786-0 renal, in the test with A498 renal, in the test on ACHN renal, in the test with BT-549 breast, in the test with HOP-62 NSCLC and with HS 578T breast was more than 100 µM each time. Besides, the TGI with HT29 colon, with MDA-N, in the test with RXF 393 renal, in the test on SF-295 CNS and in the test with SF-539 CNS was more than 100 µM in each case.

Consider `C/C=C(/C)C(=O)O[C@H](C[C@@H](C)[C@H]1CC(c2ccoc2)OC1=O)[C@@]1(C)C(=O)CCC2O[C@]21C` (some centres undefined), for which the TGI in the test on 786-0 renal, in the test on A498 renal, in the test on ACHN renal, with BT-549 breast, with HS 578T breast and in the test with HT29 colon was more than 100 µM in each case. Besides, the TGI in the test on MDA-N, in the test on RXF 393 renal, with SF-295 CNS and with SF-539 CNS was more than 100 µM in each case.

As for `CCOC(=O)c1cc2c3c(c(C(C)=O)c(O)c2[nH]1)N(CC(C)CC)CC3` (centres undefined), the TGI with 786-0 renal is more than 100 µM; in the test with A498 renal, more than 100 µM; in the test with ACHN renal, more than 100 µM; in the test with BT-549 breast, more than 100 µM; in the test on HS 578T breast, 51.4 µM; with HT29 colon it was more than 100 µM. Moreover, the TGI in the test with MDA-N, in the test on RXF 393 renal, in the test with SF-295 CNS and in the test with SF-539 CNS was more than 100 µM each time.

Consider `CCCCCC(C)SC1(C(=O)OC)CC(OC(C)=O)C(NC(C)=O)C([C@H](OC(C)=O)[C@@H](COC(C)=O)OC(C)=O)O1` (some centres undefined), for which the TGI was more than 100 µM in the test with 786-0 renal; more than 100 µM in the test with A498 renal; more than 100 µM in the test with ACHN renal; more than 100 µM with BT-549 breast; more than 100 µM in the test with HOP-62 NSCLC; 97 µM with HS 578T breast. The TGI in the test on HT29 colon was more than 100 µM; in the test with MDA-N it was more than 100 µM; in the test on RXF 393 renal, more than 100 µM; in the test with SF-295 CNS, more than 100 µM; with SF-539 CNS, 70.1 µM.

As for `O=C(Nc1ccccc1)N(CCCCN(Cc1ccccc1)C(=O)Nc1ccccc1)Cc1ccccc1`, the TGI in the test on 786-0 renal, in the test with A498 renal, in the test with ACHN renal, in the test on BT-549 breast, in the test on HOP-62 NSCLC and in the test on HS 578T breast was more than 100 µM in each case. The TGI in the test with HT29 colon, in the test with MDA-N, in the test with RXF 393 renal and in the test on SF-295 CNS was more than 100 µM throughout.

For the origin of these results see PubChem BioAssay (NCI).
